Legend:
MRCKβ = target: T1, MRCKβ (Homo sapiens, UniProt Q9Y5S2); test: MLC phosphorylation in MDA-MB-231 cells expressing doxycycline-induced MRCKβ kinase domain (quantitative western blot); assay type: cell-based
T1 construct: The kinase domains of MRCKβ (1–473), ROCK1 (1–535) or ROCK2 (1–532) were gene synthesized; expressed in transfected cells; host or cells: MDA-MB-231 D3H2LN-Luc Tet3G cells, pTRE3G-MRCKβ (1–473)
T1 sequence (Q9Y5S2 1-473): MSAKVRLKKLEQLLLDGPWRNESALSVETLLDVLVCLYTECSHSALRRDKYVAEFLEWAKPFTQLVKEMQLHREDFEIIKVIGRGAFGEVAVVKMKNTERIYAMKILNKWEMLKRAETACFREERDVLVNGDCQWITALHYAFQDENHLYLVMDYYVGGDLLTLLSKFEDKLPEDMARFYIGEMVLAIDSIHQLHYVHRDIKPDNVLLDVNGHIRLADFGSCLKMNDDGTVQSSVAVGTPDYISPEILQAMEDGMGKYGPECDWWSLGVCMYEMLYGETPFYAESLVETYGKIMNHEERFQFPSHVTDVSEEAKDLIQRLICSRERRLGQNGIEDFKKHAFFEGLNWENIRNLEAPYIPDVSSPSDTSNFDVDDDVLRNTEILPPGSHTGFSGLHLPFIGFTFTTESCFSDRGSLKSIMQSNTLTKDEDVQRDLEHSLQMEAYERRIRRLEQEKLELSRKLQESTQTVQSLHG
Method: (A) MDA-MB-231 breast cancer cells expressing doxycycline inducible ROCK1, ROCK2 or MRCKβ kinase domains were established as indicated. Following treatment with doxycycline for 18 hours to induce expression, cell lysates were western blotted with antibodies as indicated.
MDA-MB-231 D3H2LN-Luc cells (Caliper LifeScience) were grown in MEM/EBSS (Hyclone) supplemented with 10% fetal bovine serum (FBS) (Gibco), 1 mM Sodium Pyruvate (Sigma) 2 mM L-glutamine (Gibco), 1× MEM non-essential amino acids (Gibco) plus penicillin-streptomycin (10 Units/ml and 10 μg/ml respectively) at 37°C in 5% CO2 in a humidified incubator. MDA-MB-231 D3H2LN-Luc TetOn MRCKβ, ROCK1 and ROCK2 selective cell lines were grown in the same media with 10% FBS replaced with 10% Tet System Approved FBS (Clontech).
The kinase domains of MRCKβ (1–473), ROCK1 (1–535) or ROCK2 (1–532) were gene synthesized (Genscript) and subcloned into pTRE3G (Clontech). MDA-MB-231 D3H2LN-Luc Tet3G cells were co-transfected with pTRE3G-MRCKβ (1–473), pTRE3G-ROCK1 (1–535) or pTRE3G-ROCK2 (1–532), together with a linear Pur^r-selection marker using Xfect transfection reagent according to manufacturer’s instructions. […] Each clone was treated with or without doxycycline (1 μg/ml) for 24 hours and kinase domain expression and activity determined by western blotting. […]

MDA MB 231 cells = test: Alamar Blue cell viability, MDA-MB-231 cells; assay type: cell-based, human; details: 24 hours
Method: (A) MDA-MB-231 human breast cancer cells were plated in 96 well plates, then 24 hours later a ~800 μm scratch wound was created. […] All results are shown as mean ± standard error of n ≥ 4 independent replicates. […] Readings were compared to the Alamar Blue metabolism in DMSO treated cells that were used as the viability standard of 100% for each replicate experiment. All results are shown as mean ± standard error of 3 independent replicates.
MDA-MB-231 cells were plated at 30,000 cells per well in Image Lock 96 well plates (Essen BioScience) in 100 μL complete DMEM medium and after allowing cells to settle for 20 min were incubated overnight at 37°C in 5% CO2 in a humidified incubator. Matrigel (BD Biosciences) was thawed overnight at 4°C, diluted 1:1 with PBS and 100 μL pipetted over cells that had been scratched with the WoundMaker tool (Essen BioScience). Plates were incubated for 1 h, then appropriately diluted drugs added in 100 μL media to achieve final concentrations. Plates were scanned with an Incucyte Zoom (Essen BioSciences) according to manufacturer’s instructions at 3 hour intervals. Cell viability was determined with AlamarBlue (Invitrogen, DAL 1025), which was added to the medium and cells cultured for 6 hours. Absorbances at 570 nm and at 600 nm were measured to assess metabolic activity.
(§1) MDA MB 231 or SCC12 cells were plated in a 96 well plate and cultured for 24 hours. […] Pictures were taken every 3 hours and confluence was measured using the IncuCyte analysis software. AlamarBlue (Invitrogen, DAL 1025) was added to the medium and the cells were cultured for an additional day. Absorbances at 570 nm and at 600 nm were measured to assess cell health.

SCC12 cells = test: Alamar Blue cell viability, SCC12 cells; assay type: cell-based, human; details: 2 μM, 24 hours
Method: All results are shown as mean ± standard error of n = 3 independent replicates. […] Readings were compared to the Alamar Blue metabolism in DMSO treated cells that were used as the viability standard of 100% for each replicate experiment. […] (F) Number of invading cells was determined in 5 random fields for each condition for each separate replicate experiment. All results are shown as mean ± standard error of n ≥ 3 independent replicates.
as §1

Row | inhibition of MRCKβ activity (MLC phosphorylation) (MRCKβ; highest 30 μM concentration) | inhibition of MLC phosphorylation induced by MRCKβ (MRCKβ; 3 μM) | EC50 (MDA MB 231 cells; Homo sapiens, MDA-MB-231, read-out: EC50, cell viability (Alamar Blue metabolism)) | SMILES | effect on cell viability (MDA MB 231 cells; 10 μM) | cell viability (Alamar Blue metabolism) versus DMSO (SCC12 cells) | effect on cell viability (MDA MB 231 cells; 1 μM)
1 | ≤ 50% | – | – | C[C@@H](N)[C@H]1CC[C@H](C(=O)Nc2ccncc2)CC1 [Y27632, reference compound] | no effect on cell viability | did not differ from DMSO standard values | –
2 | – | completely inhibited | > 10 µM | O=C(Nc1cn[nH]c1-c1ccccn1)c1nn(C2CCNCC2)cc1Cl [BDP5290, 4-chloro-1-(4-piperidyl)-N-[5-(2-pyridyl)-1H-pyrazol-4-yl]pyrazole-3-carboxamide] | – | did not differ from DMSO standard values | no effect on cell viability

Reference: publication PMC4195943, “A novel small-molecule MRCK inhibitor blocks cancer cell invasion” (Cell Communication and Signaling : CCS, 2014)
